The text below walks through data of publication PMC5218480 (PLoS ONE, 2017).

The subject of this test is MV-4-11 cells. Put plainly: Gene expression microarray analysis (Affymetrix PrimeView) and GSEA. It is filed as cell-based, human. Also noted: RFU PODN (11730768_x_at) / Fold change /veh PODN (11730768_x_at) / RFU LINC00158 (11744669_a_at) / Fold change /veh LINC00158 (11744669_a_at) / RFU DUSP10 (11751237_a_at) / Fold change /veh DUSP10 (11751237_a_at) / RFU ID3 (11757404_x_at) / Fold change /veh ID3 (11757404_x_at) / RFU PLEKHG5 (11737974_s_at) / Fold change /veh PLEKHG5 (11737974_s_at) / RFU LRRC4B (11730491_at) / Fold change /veh LRRC4B (11730491_at) / RFU GIMAP4 (11747438_a_at) / Fold change /veh GIMAP4 (11747438_a_at) / RFU KRT8 (11758183_x_at) / Fold change /veh KRT8 (11758183_x_at) / RFU CNN1 (11734310_a_at) / Fold change /veh CNN1 (11734310_a_at) / RFU VPS37D (11726825_at) / Fold change /veh VPS37D (11726825_at) / RFU C10orf10 (11716522_x_at) / Fold change /veh C10orf10 (11716522_x_at) / RFU KIR2DL2 /// KIR2DL4 /// KIR2DL5A /// KIR2DL5B /// KIR2DS1 /// KIR2DS2 /// KIR2DS3 /// KIR2DS4 /// KIR3DL3 /// KIR3DL3 /// KIR3DS1 (11738374_at) / Fold change /veh KIR2DL2 /// KIR2DL4 /// KIR2DL5A /// KIR2DL5B /// KIR2DS1 /// KIR2DS2 /// KIR2DS3 /// KIR2DS4 /// KIR3DL3 /// KIR3DL3 /// KIR3DS1 (11738374_at) / RFU C1QL1 (11718748_at) / Fold change /veh C1QL1 (11718748_at) / RFU TMPRSS4 (11747572_a_at) / Fold change /veh TMPRSS4 (11747572_a_at) / RFU HAMP (11756126_x_at) / Fold change /veh HAMP (11756126_x_at) / RFU RNFT2 (11725882_a_at) / Fold change /veh RNFT2 (11725882_a_at) / RFU NR4A2 (11747474_a_at) / Fold change /veh NR4A2 (11747474_a_at) / RFU ABCC12 (11746883_a_at) / Fold change /veh ABCC12 (11746883_a_at) / RFU TMEM136 (11760407_x_at) / Fold change /veh TMEM136 (11760407_x_at) / RFU CLDN22 /// WWC2 (11732394_at) / Fold change /veh CLDN22 /// WWC2 (11732394_at) / RFU HLA-DPB1 (11760878_x_at) / Fold change /veh HLA-DPB1 (11760878_x_at) / RFU SPINT1 (11716480_a_at) / Fold change /veh SPINT1 (11716480_a_at) / RFU GAP43 (11754022_s_at) / Fold change /veh GAP43 (11754022_s_at) / RFU A4GNT (11735810_at) / Fold change /veh A4GNT (11735810_at) / RFU PRB3 (11715151_x_at) / Fold change /veh PRB3 (11715151_x_at) / RFU TUBB4B (11761932_at) / Fold change /veh TUBB4B (11761932_at) / RFU CAPN14 (11732068_a_at) / Fold change /veh CAPN14 (11732068_a_at) / RFU TMCC2 (11721928_a_at) / Fold change /veh TMCC2 (11721928_a_at) / RFU IRGQ (11745062_a_at) / Fold change /veh IRGQ (11745062_a_at) / RFU FAM174B (11720279_a_at) / Fold change /veh FAM174B (11720279_a_at) / RFU TMPRSS4 (11748680_a_at) / Fold change /veh TMPRSS4 (11748680_a_at) / RFU FAM212B (11763350_a_at) / Fold change /veh FAM212B (11763350_a_at) / RFU PLEKHG5 (11743358_a_at) / Fold change /veh PLEKHG5 (11743358_a_at) / RFU ZSCAN30 (11745921_a_at) / Fold change /veh ZSCAN30 (11745921_a_at) / RFU CMKLR1 (11741424_a_at) / Fold change /veh CMKLR1 (11741424_a_at) / RFU LOC101060620 /// MAPK8IP1 (11723275_at) / Fold change /veh LOC101060620 /// MAPK8IP1 (11723275_at) / RFU SPTSSB (11747773_x_at) / Fold change /veh SPTSSB (11747773_x_at) / RFU PRSS12 (11739890_at) / Fold change /veh PRSS12 (11739890_at) / RFU BIN1 (11741810_x_at) / Fold change /veh BIN1 (11741810_x_at) / RFU WNT11 (11732464_a_at) / Fold change /veh WNT11 (11732464_a_at) / RFU C10orf10 (11716521_a_at) / Fold change /veh C10orf10 (11716521_a_at) / RFU C5orf56 (11738089_at) / Fold change /veh C5orf56 (11738089_at) / RFU CYB561 (11721691_x_at) / Fold change /veh CYB561 (11721691_x_at) / RFU ANKRD19P (11752326_a_at) / Fold change /veh ANKRD19P (11752326_a_at) / RFU OR2T12 /// OR2T33 /// OR2T8 (11738714_s_at) / Fold change /veh OR2T12 /// OR2T33 /// OR2T8 (11738714_s_at) / RFU VCAN (11748164_a_at) / Fold change /veh VCAN (11748164_a_at) / RFU JSRP1 (11732532_at) / Fold change /veh JSRP1 (11732532_at) / RFU KRTAP10-11 (11738290_x_at) / Fold change /veh KRTAP10-11 (11738290_x_at) / RFU MYO3A (11730013_a_at) / Fold change /veh MYO3A (11730013_a_at) / RFU EBF3 (11725865_a_at) / Fold change /veh EBF3 (11725865_a_at) / RFU CAMK2N1 (11719241_x_at) / Fold change /veh CAMK2N1 (11719241_x_at) / RFU C5orf56 (11738088_a_at) / Fold change /veh C5orf56 (11738088_a_at) / RFU OLFML3 (11715873_a_at) / Fold change /veh OLFML3 (11715873_a_at) / RFU LOC100653217 /// NTM (11731650_a_at) / Fold change /veh LOC100653217 /// NTM (11731650_a_at) / RFU MAPK11 (11762145_a_at) / Fold change /veh MAPK11 (11762145_a_at) / RFU FIZ1 (11724087_x_at) / Fold change /veh FIZ1 (11724087_x_at) / RFU OASL (11726364_x_at) / Fold change /veh OASL (11726364_x_at) / RFU SOX15 (11748057_x_at) / Fold change /veh SOX15 (11748057_x_at) / RFU CD79A (11719716_a_at) / Fold change /veh CD79A (11719716_a_at) / RFU HIST1H1D (11736915_at) / Fold change /veh HIST1H1D (11736915_at) / RFU CASKIN2 (11723855_a_at) / Fold change /veh CASKIN2 (11723855_a_at) / RFU LOC730098 (11760151_x_at) / Fold change /veh LOC730098 (11760151_x_at) / RFU OR4N2 (11742367_at) / Fold change /veh OR4N2 (11742367_at) / RFU PRRT2 (11749266_a_at) / Fold change /veh PRRT2 (11749266_a_at) / RFU SNX32 (11753110_a_at) / Fold change /veh SNX32 (11753110_a_at) / RFU CDHR5 (11726645_a_at) / Fold change /veh CDHR5 (11726645_a_at) / RFU RCAN1 (11760418_a_at) / Fold change /veh RCAN1 (11760418_a_at) / RFU FAM167A (11723789_a_at) / Fold change /veh FAM167A (11723789_a_at) / RFU FAM26E (11764081_at) / Fold change /veh FAM26E (11764081_at) / RFU ISYNA1 (11749810_s_at) / Fold change /veh ISYNA1 (11749810_s_at) / RFU ACY1 (11761880_at) / Fold change /veh ACY1 (11761880_at) / RFU 11764098_at / Fold change /veh 11764098_at / RFU SAMD14 (11745864_x_at) / Fold change /veh SAMD14 (11745864_x_at) / RFU NPB (11741838_a_at) / Fold change /veh NPB (11741838_a_at) / RFU TMPRSS6 (11731388_a_at) / Fold change /veh TMPRSS6 (11731388_a_at) / RFU KRTAP10-2 (11738614_at) / Fold change /veh KRTAP10-2 (11738614_at) / RFU ARHGAP8 /// PRR5-ARHGAP8 (11727945_x_at) / Fold change /veh ARHGAP8 /// PRR5-ARHGAP8 (11727945_x_at) / RFU KRTAP5-7 /// NADSYN1 (11734609_at) / Fold change /veh KRTAP5-7 /// NADSYN1 (11734609_at) / RFU RASL12 (11751679_a_at) / Fold change /veh RASL12 (11751679_a_at) / RFU CDKN2B (11736163_a_at) / Fold change /veh CDKN2B (11736163_a_at) / RFU PRF1 (11729649_at) / Fold change /veh PRF1 (11729649_at) / RFU, ZNF638 /// ZNF638-IT1 / Fold change vs veh, ZNF638 /// ZNF638-IT1 / RFU, PANK3 / Fold change vs veh, PANK3 / RFU, SH3YL1 / Fold change vs veh, SH3YL1 / RFU, ZEB2 / Fold change vs veh, ZEB2 / RFU, NRIP1 / Fold change vs veh, NRIP1 / RFU, PTTG1IP / Fold change vs veh, PTTG1IP / RFU, CAPN2 / Fold change vs veh, CAPN2 / RFU, MED14 / Fold change vs veh, MED14 / RFU, SNORA58 / Fold change vs veh, SNORA58 / RFU, C1orf63 / Fold change vs veh, C1orf63 / RFU, LRRFIP1 / Fold change vs veh, LRRFIP1 / RFU, NDUFAF7 / Fold change vs veh, NDUFAF7 / RFU, SLC12A2 / Fold change vs veh, SLC12A2 / RFU, IBTK / Fold change vs veh, IBTK / RFU, ESF1 / Fold change vs veh, ESF1 / Fold change vs veh, TMEM50B / RFU, TAOK1 / Fold change vs veh, TAOK1 / RFU, ACBD3 / Fold change vs veh, ACBD3 / RFU, TMA16 / Fold change vs veh, TMA16 / RFU, RWDD3 / Fold change vs veh, RWDD3 / RFU, BCAT1 / Fold change vs veh, BCAT1 / RFU, EDEM3 / Fold change vs veh, EDEM3 / RFU, TMEM33 / Fold change vs veh, TMEM33 / RFU, WDR75 / Fold change vs veh, WDR75 / RFU, AHCTF1 / Fold change vs veh, AHCTF1 / RFU, TFRC / Fold change vs veh, TFRC / RFU, ZDHHC17 / Fold change vs veh, ZDHHC17 / RFU, NOM1 / Fold change vs veh, NOM1 / RFU, ARL8B / Fold change vs veh, ARL8B / RFU, ZBTB11 / Fold change vs veh, ZBTB11 / RFU, TAMM41 / Fold change vs veh, TAMM41 / RFU, KIAA1704 /// LOC100996395 / Fold change vs veh, KIAA1704 /// LOC100996395 / RFU, ING1 / Fold change vs veh, ING1 / RFU, TRMT61B / Fold change vs veh, TRMT61B / RFU, FUBP3 / Fold change vs veh, FUBP3 / RFU, TP53 / Fold change vs veh, TP53 / RFU, TNKS2 / Fold change vs veh, TNKS2 / RFU, ZFP14 / Fold change vs veh, ZFP14 / RFU, ACTR2 / Fold change vs veh, ACTR2 / RFU, PPP3R1 / Fold change vs veh, PPP3R1 / RFU, PIK3R1 / Fold change vs veh, PIK3R1 / RFU, HNRNPA1 / Fold change vs veh, HNRNPA1 / RFU, RNF170 / Fold change vs veh, RNF170 / RFU, ZNF28 / Fold change vs veh, ZNF28 / RFU, RNGTT / Fold change vs veh, RNGTT / RFU, OGT / Fold change vs veh, OGT / RFU, BRD1 / Fold change vs veh, BRD1 / RFU, MARS / Fold change vs veh, MARS / RFU, ZNF655 / Fold change vs veh, ZNF655 / RFU, FAHD1 / Fold change vs veh, FAHD1 / RFU, BDP1 / Fold change vs veh, BDP1 / RFU, LRRCC1 / Fold change vs veh, LRRCC1 / RFU, ARID1A / Fold change vs veh, ARID1A / RFU, ZNF146 / Fold change vs veh, ZNF146 / RFU, ZNF330 / Fold change vs veh, ZNF330 / RFU, GPN3 / Fold change vs veh, GPN3 / RFU, C9orf123 / Fold change vs veh, C9orf123 / RFU, N4BP2L2 / Fold change vs veh, N4BP2L2 / RFU, ARFIP1 / Fold change vs veh, ARFIP1 / RFU, FAM179B / Fold change vs veh, FAM179B / RFU, BCL10 / Fold change vs veh, BCL10 / RFU, UHRF1BP1L / Fold change vs veh, UHRF1BP1L / RFU, BET1 / Fold change vs veh, BET1 / RFU, CNOT2 / Fold change vs veh, CNOT2 / RFU, ZNF268 / Fold change vs veh, ZNF268 / Fold change vs veh, ZNF507 / RFU, DGCR2 / Fold change vs veh, DGCR2 / RFU, WDSUB1 / Fold change vs veh, WDSUB1 / Fold change vs veh, HSP90B1 /// MIR3652 / RFU, ADSS / Fold change vs veh, ADSS / RFU, GK / Fold change vs veh, GK / RFU, ZNF148 / Fold change vs veh, ZNF148 / RFU, TAF9 / Fold change vs veh, TAF9 / RFU, SLC1A5 / Fold change vs veh, SLC1A5 / RFU, SLMO2 / Fold change vs veh, SLMO2 / RFU, ABCC4 / Fold change vs veh, ABCC4 / RFU, LOC101060439 /// RAP1B / Fold change vs veh, LOC101060439 /// RAP1B / RFU, RFX7 / Fold change vs veh, RFX7 / RFU, GTPBP10 / Fold change vs veh, GTPBP10 / RFU, CNEP1R1 / Fold change vs veh, CNEP1R1 / RFU, BIVM-ERCC5 /// ERCC5 / Fold change vs veh, BIVM-ERCC5 /// ERCC5 / RFU, ILF3 / Fold change vs veh, ILF3 / RFU 11762660_at / Fold change /veh 11762660_at / RFU VCAN (11757783_s_at) / Fold change /veh VCAN (11757783_s_at) / RFU DDX43 (11728927_at) / Fold change /veh DDX43 (11728927_at) / RFU KRT8 (11758188_x_at) / Fold change /veh KRT8 (11758188_x_at) / RFU NKD1 (11759106_at) / Fold change /veh NKD1 (11759106_at) / RFU SRD5A1 (11742802_a_at) / Fold change /veh SRD5A1 (11742802_a_at) / RFU TPSAB1 /// TPSB2 (11721975_s_at) / Fold change /veh TPSAB1 /// TPSB2 (11721975_s_at) / RFU GSTM3 (11746129_a_at) / Fold change /veh GSTM3 (11746129_a_at) / RFU IL23R (11737362_x_at) / Fold change /veh IL23R (11737362_x_at) / RFU TMEM51 (11727254_a_at) / Fold change /veh TMEM51 (11727254_a_at) / RFU PIWIL2 (11732686_x_at) / Fold change /veh PIWIL2 (11732686_x_at) / RFU ORM1 (11744905_x_at) / Fold change /veh ORM1 (11744905_x_at) / RFU CCDC152 (11743942_at) / Fold change /veh CCDC152 (11743942_at) / RFU ECM1 (11717891_a_at) / Fold change /veh ECM1 (11717891_a_at) / RFU IL23R (11748794_a_at) / Fold change /veh IL23R (11748794_a_at) / RFU TNFAIP8L3 (11732012_x_at) / Fold change /veh TNFAIP8L3 (11732012_x_at) / RFU MBOAT4 (11741988_at) / Fold change /veh MBOAT4 (11741988_at) / RFU 11764193_at / Fold change /veh 11764193_at / RFU TMEM53 (11763286_at) / Fold change /veh TMEM53 (11763286_at) / RFU MAGEB2 (11727129_at) / Fold change /veh MAGEB2 (11727129_at) / RFU TMEM200A (11744735_a_at) / Fold change /veh TMEM200A (11744735_a_at) / RFU CCDC152 (11751479_a_at) / Fold change /veh CCDC152 (11751479_a_at) / RFU FAM211A (11726209_a_at) / Fold change /veh FAM211A (11726209_a_at) / RFU RGS16 (11746705_a_at) / Fold change /veh RGS16 (11746705_a_at) / RFU VCAN (11755009_s_at) / Fold change /veh VCAN (11755009_s_at) / RFU RHOB (11743442_s_at) / Fold change /veh RHOB (11743442_s_at) / RFU RGS16 (11720943_a_at) / Fold change /veh RGS16 (11720943_a_at) / RFU RGS16 (11720944_at) / Fold change /veh RGS16 (11720944_at) / RFU, VPS4B / Fold change vs veh, VPS4B / RFU, CREB1 / Fold change vs veh, CREB1 / RFU, DNAJC13 / Fold change vs veh, DNAJC13 / RFU, GNAQ / Fold change vs veh, GNAQ / RFU, CDK5R1 / Fold change vs veh, CDK5R1 / RFU, ZRANB3 / Fold change vs veh, ZRANB3 / RFU, CUL4A / Fold change vs veh, CUL4A / RFU, CCNY / Fold change vs veh, CCNY / RFU, UFL1 / Fold change vs veh, UFL1 / RFU, COG3 / Fold change vs veh, COG3 / RFU, DIAPH2 / Fold change vs veh, DIAPH2 / RFU, SKA2 / Fold change vs veh, SKA2 / RFU, AFF3 / Fold change vs veh, AFF3 / RFU, LMF1 / Fold change vs veh, LMF1 / RFU, IPO11 / Fold change vs veh, IPO11 / RFU, DFFB / Fold change vs veh, DFFB / RFU, FOXP1 / Fold change vs veh, FOXP1 / RFU, CARD8 / Fold change vs veh, CARD8 / RFU, STRN3 / Fold change vs veh, STRN3 / RFU, ADK / Fold change vs veh, ADK / RFU, RASSF2 / Fold change vs veh, RASSF2 / RFU, WIPF1 / Fold change vs veh, WIPF1 / RFU, LARP1B / Fold change vs veh, LARP1B / RFU, RASA1 / Fold change vs veh, RASA1 / RFU, RB1 / Fold change vs veh, RB1 / RFU, PPFIA1 / Fold change vs veh, PPFIA1 / RFU, MAT2A / Fold change vs veh, MAT2A / RFU, CCT5 / Fold change vs veh, CCT5 / RFU, WDR92 / Fold change vs veh, WDR92 / RFU, CUX1 / Fold change vs veh, CUX1 / RFU, TTC7A / Fold change vs veh, TTC7A / RFU, TMEM135 / Fold change vs veh, TMEM135 / RFU, DEPTOR / Fold change vs veh, DEPTOR / RFU, CPM / Fold change vs veh, CPM / RFU, DNAJB6 / Fold change vs veh, DNAJB6 / RFU, CACNA2D3 / Fold change vs veh, CACNA2D3 / RFU, DTX4 / Fold change vs veh, DTX4 / RFU, TFCP2 / Fold change vs veh, TFCP2 / RFU, GMCL1 /// GMCL1P1 / Fold change vs veh, GMCL1 /// GMCL1P1 / RFU, AEBP2 / Fold change vs veh, AEBP2 / RFU, SNHG1 /// SNORD22 /// SNORD25 /// SNORD26 /// SNORD27 /// SNORD28 /// SNORD29 /// SNORD31 / Fold change vs veh, SNHG1 /// SNORD22 /// SNORD25 /// SNORD26 /// SNORD27 /// SNORD28 /// SNORD29 /// SNORD31 / Fold change (Aza/veh), C12orf56 (ProbeSet 11735607_a_at) / Fold change (ACY-1035/veh), C12orf56 (ProbeSet 11735607_a_at) / Fold change (Aza/veh), FGFR1OP (ProbeSet 11751329_s_at) / Fold change (ACY-1035/veh), FGFR1OP (ProbeSet 11751329_s_at) / Fold change (Aza/veh), VPS36 (ProbeSet 11739960_a_at) / Fold change (ACY-1035/veh), VPS36 (ProbeSet 11739960_a_at) / RFU SYPL1 (11715823_x_at) / Fold change /veh SYPL1 (11715823_x_at) / RFU IGFBP7 (11715501_s_at) / Fold change /veh IGFBP7 (11715501_s_at) / RFU REEP3 (11722064_at) / Fold change /veh REEP3 (11722064_at) / RFU IGLL1 (11728026_x_at) / Fold change /veh IGLL1 (11728026_x_at): dose or concentration left out as unconfirmed. Particulars: ProbeSet 11732154_at; LIST B.

Take `Nc1ncn([C@@H]2O[C@H](CO)[C@@H](O)[C@H]2O)c(=O)n1` [azacitidine]: the “RFU, OGT” value is given as 289.66 RFU.
